From US8962621B2 (Shanghai Institute of Pharmaceutical Industry, priority 2010, dated 2015)

Columns and labels:
[1] = system: NA reuptake; assay: Yohimbine toxicity enhancement in mice; assay type: in vivo; conditions: for Mortality (%) 1 h / Mortality (%) 2 h / Mortality (%) 4 h / Mortality (%) 5 h / Mortality (%) 24 h: Yohimbine 25 mg/kg s.c. 1 h later, n = 10
Source text: Tests of the 5-hydroxytryptophan (DL-5-HTP) potentiation in mice, Yohimbine toxicity enhancement in mice and oxidation tremors can verify a compound's inhibition effect on 5-HT, NA and DA reuptake. Compound VI-2 is selected for the tests.
a) Principles • Yohimbine can prevent the binding of NA to the receptor by occupying α2 receptor. If an antidepressant which inhibits the deactivation of NA or inhibits NA reuptake is taken together with Yohimbine, an individual may be poisoned even to death due to the raised NA concentration.
b) Test Method • This test consists of 5 experimental groups: Yohimbine control group, VI-2-1 (30 mg/kg) group, VI-2-2 (18 mg/kg) group, VI2-3 (11 mg/kg) group and VI-2-4 (6.5 mg/kg) group. The highest dose used in the DL-5-HTP potentiation test in mice is designated as the reference for the highest dose group, down from which 4 dosage groups are set with a dose ratio of 0.6 across groups. For each VI-2 group, the compound at the corresponding dosage is administrated orally, or as in the case of the Yohimbine control group, N.S is given to the animals. One hour after the treatment, Yohimbine at 25 mg/kg (life-threatening dose for the animal) is administrated by subcutaneous injection to the mice in all groups. The mortality in each group is observed and recorded at 1, 2, 4, 5 and 24 h after the administration of Yohimbine. The ED50 value is calculated accordingly.

[2] = target: DA Transporter (hDAT) (Homo sapiens, UniProt Q01959); assay: Inhibition of [3H]-DA reuptake in HEK 293 cells stably expressing hDAT; conditions: HEK293, read-out: DA Reuptake Inhibition
DA Transporter (hDAT), sequence (Q01959 whole entry): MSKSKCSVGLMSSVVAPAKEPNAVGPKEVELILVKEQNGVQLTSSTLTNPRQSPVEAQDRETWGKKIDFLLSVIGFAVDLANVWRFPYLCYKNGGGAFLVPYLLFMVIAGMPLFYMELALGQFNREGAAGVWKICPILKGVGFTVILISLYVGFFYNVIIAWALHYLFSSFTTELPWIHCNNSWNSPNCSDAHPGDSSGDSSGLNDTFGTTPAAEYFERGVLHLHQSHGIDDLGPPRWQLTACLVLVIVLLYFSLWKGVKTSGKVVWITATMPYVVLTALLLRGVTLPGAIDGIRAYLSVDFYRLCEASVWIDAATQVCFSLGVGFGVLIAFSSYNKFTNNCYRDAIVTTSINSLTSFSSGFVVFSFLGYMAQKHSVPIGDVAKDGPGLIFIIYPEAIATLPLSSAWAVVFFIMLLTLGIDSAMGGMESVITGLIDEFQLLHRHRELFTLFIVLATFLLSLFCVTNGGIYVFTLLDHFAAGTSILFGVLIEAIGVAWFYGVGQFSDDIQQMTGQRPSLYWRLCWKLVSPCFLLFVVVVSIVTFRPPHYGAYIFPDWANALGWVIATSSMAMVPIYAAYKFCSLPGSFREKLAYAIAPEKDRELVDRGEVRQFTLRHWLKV

[3] = system: male ICR mice; assay: Mice tail suspension test; assay type: in vivo
Summary of the method: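 Samples given intragastrically at 10 mL·kg^−1, saline for controls; mice tail-suspended 1 h later. Immobility time was scored over 4 min after a 2 min lead-in, and improvement % calculated as reduction in immobility relative to the saline group.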

[4] = target: 5-HT Transporter (hSERT) (Homo sapiens, UniProt P31645); assay: Inhibition of [3H]-5-HT reuptake in HEK 293 cells stably expressing hSERT;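 also: compound preincubated 10 min at 30 °C, then 10 min uptake, filter-bound radioactivity counted by scintillation, inhibition relative to total (blank) minus non-specific (positive control) uptake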
5-HT Transporter (hSERT), sequence (P31645 whole entry): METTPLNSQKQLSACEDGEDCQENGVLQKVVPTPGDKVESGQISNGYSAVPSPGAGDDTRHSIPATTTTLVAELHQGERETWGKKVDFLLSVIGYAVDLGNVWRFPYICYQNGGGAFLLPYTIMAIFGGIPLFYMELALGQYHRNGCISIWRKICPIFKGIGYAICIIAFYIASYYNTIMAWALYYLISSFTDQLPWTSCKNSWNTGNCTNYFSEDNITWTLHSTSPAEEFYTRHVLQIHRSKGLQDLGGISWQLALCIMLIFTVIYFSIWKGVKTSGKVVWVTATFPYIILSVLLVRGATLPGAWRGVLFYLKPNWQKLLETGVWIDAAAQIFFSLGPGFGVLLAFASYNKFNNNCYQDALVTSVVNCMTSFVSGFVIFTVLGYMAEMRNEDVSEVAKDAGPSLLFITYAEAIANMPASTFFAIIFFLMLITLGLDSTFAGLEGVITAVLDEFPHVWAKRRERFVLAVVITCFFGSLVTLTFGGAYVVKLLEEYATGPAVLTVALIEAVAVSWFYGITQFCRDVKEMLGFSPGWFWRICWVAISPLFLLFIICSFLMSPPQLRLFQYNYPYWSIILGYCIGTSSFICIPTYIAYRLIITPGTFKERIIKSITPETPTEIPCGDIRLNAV

SMILES: CN(C)CCC(c1ccc(Cl)c(Cl)c1)N1CCCC1 (stereo not shown) [VI-2, N,N-dimethyl-3-(3,4-dichlorophenyl)-3-(pyrrolidin-1-yl)-propylamine]
- Mortality (%) 1 h ([1]; 6.5 mg/kg oral): 0%
- Mortality (%) 2 h ([1]; 6.5 mg/kg oral): 0%
- Mortality (%) 4 h ([1]; 6.5 mg/kg oral): 0%
- Mortality (%) 5 h ([1]; 6.5 mg/kg oral): 0%
- Mortality (%) 24 h ([1]; 6.5 mg/kg oral): 0%
- Mortality (%) 1 h ([1]; 11 mg/kg oral): 0%
- Mortality (%) 2 h ([1]; 11 mg/kg oral): 1%
- Mortality (%) 4 h ([1]; 11 mg/kg oral): 0%
- Mortality (%) 5 h ([1]; 11 mg/kg oral): 0%
- Mortality (%) 24 h ([1]; 11 mg/kg oral): 0%
- Mortality (%) 1 h ([1]; 18 mg/kg oral): 1%
- Mortality (%) 2 h ([1]; 18 mg/kg oral): 2%
- Mortality (%) 4 h ([1]; 18 mg/kg oral): 0%
- Mortality (%) 5 h ([1]; 18 mg/kg oral): 0%
- Mortality (%) 24 h ([1]; 18 mg/kg oral): 0%
- Mortality (%) 1 h ([1]; 30 mg/kg oral): 2%
- Mortality (%) 2 h ([1]; 30 mg/kg oral): 0%
- Mortality (%) 4 h ([1]; 30 mg/kg oral): 0%
- Mortality (%) 5 h ([1]; 30 mg/kg oral): 0%
- Mortality (%) 24 h ([1]; 30 mg/kg oral): 0%
- enhancement of Yohimbine toxicity (in words) ([1]; 30, 18 and 11 mg/kg oral, significant dose-effect relationship): enhances the toxicity of Yohimbine
- ED50 ([1]; Mus musculus, oral, Bliss method, DAS statistical software): 32.8 mg/kg
- inhibition at 10 µM [2]: 103%
- IT (sec), immobility time ([3]; 20.0 mg/kg single intragastric administration, 1 h before test, 4 min observation, n=12): 36.19 ± 25.78 s
- Improvement (%) ([3]; 20.0 mg/kg single oral administration, versus blank control IT): 63.52%
- effect on immobility time in the tail suspension test (in words) ([3]; 20 mg/kg, efficacy similar to Venlafaxine): significant reduction in the immobility time
- inhibition effect towards the reuptake of 5-HT (in words) [4]: relatively strong inhibition effect
- inhibition at 10 µM ([4]; HEK293, read-out: 5-HT Reuptake Inhibition): 94.8%
